Series [1] has as its system Pseudomonas aeruginosa strains. The following applies: for MIC (μg/ml) CP 204: Pseudomonas aeruginosa clinical isolate CP 204; for MIC (μg/ml) M 2: Pseudomonas aeruginosa clinical isolate M 2; for MIC (μg/ml) PA 14: Pseudomonas aeruginosa clinical isolate PA 14; for MIC (μg/ml) PAK: Pseudomonas aeruginosa clinical isolate PAK; for MIC (μg/ml) PAO 1: Pseudomonas aeruginosa clinical isolate PAO 1; for MIC (μg/ml) WR 5: Pseudomonas aeruginosa clinical isolate WR 5; for MIC (μg/ml) GM: geometric mean of the MIC values for the 6 Pseudomonas aeruginosa clinical isolates. The procedure:
Pseudomonas aeruginosa strains used in this study are a diverse group of clinical isolates from different places in the world. […] The geometric mean MIC values from six Pseudomonas aeruginosa strains were calculated to provide an overall evaluation of antimicrobial activity of these peptides against Pseudomonas aeruginosa. Fold improvement was calculated by comparing the geometric mean MIC value of each peptide to that of the parent peptide V681.
Measurement of Antimicrobial Activity—Minimal inhibitory concentrations (MICs) were determined using a standard microtiter dilution method in LB (Luria-Bertani) no-salt medium (10 g of tryptone and 5 g of yeast extract per liter). Briefly, cells were grown overnight at 37° C. in LB and diluted in the same medium. […] Plates were incubated at 37° C. for 24 hours and MICs determined as the lowest peptide concentration that inhibited growth. Alternatively, minimal inhibitory concentrations were determined using a standard microtiter dilution method in a Mueller-Hinton (MH) medium. Briefly, cells were grown overnight at 37° C. in MH broth and diluted in the same medium. […] Plates were incubated at 37° C. for 24 hours and MICs determined as the lowest peptide concentration that inhibited growth. However, for MIC determination of Pseudomonas aeruginosa clinical isolates, brain heart infusion (BH1) medium was used instead of MH broth. In addition, the bacteria were diluted to a final inoculum of 1×10^6 colony-forming units/ml.
For the Leu-substituted peptides, the hemolytic activity against human erythrocytes was determined as the maximal peptide concentration that produces no hemolysis after 18 hours of incubation at 37° C. Antimicrobial activity of the peptides was determined on a diverse group of Pseudomonas aeruginosa clinical isolates. […] The geometric mean MIC values from six Pseudomonas strains in Table 14 were calculated to provide an overall evaluation of antimicrobial activity of the peptides with different hydrophobicities.

In a further series the test system is human erythrocytes. Put plainly: Hemolytic activity (MHC), Protocol B, 18 hours. The following applies: maximal peptide concentration showing no hemolysis after 18 hours, hRBC, Table 14. The procedure: In order to evaluate the biological activities of the D-enantiomeric peptides, namely D-NAL and D-NKD, the hemolytic activity of the peptides against human erythrocytes was determined as the maximal peptide concentration that produces no hemolysis after 18 hours of incubation at 37° C.
Measurement of Hemolytic Activity—Protocol A: Peptide samples were added to 1% human erythrocytes in phosphate buffered saline (0.08M NaCl; 0.043M Na2PO4; 0.011M KH2PO4) and reactions were incubated at 37° C. for 12 hours in microtiter plates. Peptide samples were diluted 2 fold in order to determine the concentration that produced no hemolysis. […] Hemoglobin release was determined spectrophotometrically at 562 nm. The hemolytic titer was the highest 2-fold dilution of the peptide that still caused release of hemoglobin from erythrocytes. The control for no release of hemoglobin was a sample of 1% erythrocytes without any peptide added. […] Peptide samples were diluted 2 fold in order to determine the concentration that produced no hemolysis. […] Hemoglobin release was determined spectrophotometrically at 570 nm. The hemolytic titer was the highest 2-fold dilution of the peptide that still caused release of hemoglobin from erythrocytes. The control for no release of hemoglobin was a sample of 1% erythrocytes without any peptide added.

In brackets after ≈: the same amount, converted by molar mass.

For the compound `CC[C@H](C)[C@H](NC(=O)[C@H](CC(C)C)NC(=O)[C@H](CCCCN)NC(=O)[C@H](CC(C)C)NC(=O)[C@H](C)NC(=O)[C@@H](NC(=O)[C@H](Cc1c[nH]cn1)NC(=O)[C@H](CC(C)C)NC(=O)[C@@H](NC(=O)[C@@H](NC(=O)[C@H](CCCCN)NC(=O)[C@H](CCCCN)NC(=O)[C@H](CC(C)C)NC(=O)[C@H](CO)NC(=O)[C@H](CCCCN)NC(=O)[C@H](Cc1ccccc1)NC(=O)[C@@H](NC(=O)[C@H](CCCCN)NC(=O)[C@H](CC(C)C)NC(=O)[C@H](Cc1ccccc1)NC(=O)[C@H](CO)NC(=O)[C@H](CCCCN)NC(=O)[C@H](Cc1c[nH]c2ccccc12)NC(=O)[C@H](CCCCN)NC(C)=O)[C@@H](C)O)[C@@H](C)O)C(C)C)[C@@H](C)O)C(=O)N[C@@H](CO)C(=O)N[C@@H](CO)C(N)=O` [A12L/A23L], in series [1], the “MIC (μg/ml) CP 204” value is 7.8 µg/mL (≈ 2.54 µM), the “MIC (μg/ml) M 2” value came to 31.3 µg/mL (≈ 10.2 µM), the “MIC (μg/ml) PA 14” value came to 62.5 µg/mL (≈ 20.3 µM) and the “MIC (μg/ml) PAK” value came out at 15.6 µg/mL (≈ 5.07 µM). Further, in series [1], the “MIC (μg/ml) PAO 1” value stood at 15.6 µg/mL (≈ 5.07 µM), the “MIC (μg/ml) WR 5” value turned out to be 250.0 µg/mL (≈ 81.3 µM) and the “MIC (μg/ml) GM” value came out at 31.2 µg/mL (≈ 10.1 µM). For the same compound, in the series with human erythrocytes, the “Hemolytic activity MHC” value was 15.6 µg/mL.

In the case of `CC[C@H](C)[C@H](NC(=O)[C@H](C)NC(=O)[C@H](CCCCN)NC(=O)[C@H](CC(C)C)NC(=O)[C@H](C)NC(=O)[C@@H](NC(=O)[C@H](Cc1c[nH]cn1)NC(=O)[C@H](CC(C)C)NC(=O)[C@@H](NC(=O)[C@@H](NC(=O)[C@H](CCCCN)NC(=O)[C@H](CCCCN)NC(=O)[C@H](CC(C)C)NC(=O)[C@H](CO)NC(=O)[C@H](CCCCN)NC(=O)[C@H](Cc1ccccc1)NC(=O)[C@@H](NC(=O)[C@H](CCCCN)NC(=O)[C@H](CC(C)C)NC(=O)[C@H](Cc1ccccc1)NC(=O)[C@H](CO)NC(=O)[C@H](CCCCN)NC(=O)[C@H](Cc1c[nH]c2ccccc12)NC(=O)[C@H](CCCCN)NC(C)=O)[C@@H](C)O)[C@@H](C)O)C(C)C)[C@@H](C)O)C(=O)N[C@@H](CO)C(=O)N[C@@H](CO)C(N)=O` [Peptide A12L], in series [1], the “MIC (μg/ml) CP 204” value came to 15.6 µg/mL (≈ 5.14 µM), the “MIC (μg/ml) M 2” value was determined as 15.6 µg/mL (≈ 5.14 µM), the “MIC (μg/ml) PA 14” value came to 31.3 µg/mL (≈ 10.3 µM) and the “MIC (μg/ml) PAK” value was determined as 31.3 µg/mL (≈ 10.3 µM). For the same compound, in series [1], the “MIC (μg/ml) PAO 1” value was found to be 15.6 µg/mL (≈ 5.14 µM), the “MIC (μg/ml) WR 5” value amounted to 62.5 µg/mL (≈ 20.6 µM) and the “MIC (μg/ml) GM” value stood at 24.8 µg/mL (≈ 8.18 µM). Also, in the series on human erythrocytes, the “Hemolytic activity MHC” value was 31.3 µg/mL.

With “Ac-KWKSFLKTFKSAKKTVLHTALKLISS-NH2 [Peptide A23L]”, in series [1], the “MIC (μg/ml) CP 204” value came out at 15.6 µg/mL, the “MIC (μg/ml) M 2” value stood at 31.3 µg/mL, the “MIC (μg/ml) PA 14” value turned out to be 31.3 µg/mL and the “MIC (μg/ml) PAK” value is 62.5 µg/mL. Further, in series [1], the “MIC (μg/ml) PAO 1” value was found to be 31.3 µg/mL, the “MIC (μg/ml) WR 5” value is 62.5 µg/mL and the “MIC (μg/ml) GM” value amounted to 35.1 µg/mL. Besides, in the series with human erythrocytes, the “Hemolytic activity MHC” value is 62.5 µg/mL.

(Values after patent US8252737B2, “Antimicrobial peptides and methods of use” (priority 2004, dated 2012).)
